Results published in patent US5140009A (Tap Pharmaceuticals, Inc., priority 1990, dated 1992).
Read-outs that look alike come from different tables or passages of the source. Numbered stars: 1 amine (or outer) side, 2 acyl side, 3 side chain; on linkers, the order of the positions; unused ones are H or OH. Square brackets hold non-standard residues; d marks the D form. Peptide text beside a SMILES is read from it. * marks the point of attachment. X8 = CN1CCN(S(=O)(=O)N[C@@H](Cc2ccccc2)C(=O)*)CC1; Propanoyl(3-(4-F-phenyl)) = O=C(CCc1ccc(F)cc1)*; Trp(5-F) = N[C@@H](Cc1c[nH]c2ccc(F)cc12)C(=O)O; dPhe(4-Cl) = N[C@H](Cc1ccc(Cl)cc1)C(=O)O; 1Nal = N[C@@H](Cc1cccc2ccccc12)C(=O)O; 2Nal = N[C@@H](Cc1ccc2ccccc2c1)C(=O)O; NMeY = CN[C@@H](Cc1ccc(O)cc1)C(=O)O; Piperazinyl(4-Me) = CN1CCN(*)CC1; NHPhenethyl = c1ccc(CCN*)cc1; Nicotinoyl = O=C(c1cccnc1)*; X3 = O=C(CCc1ccc2ccccc2c1)*; X5 = C1CCC(N(C2CCCCC2)*)CC1; NMeS = CN[C@@H](CO)C(=O)O; Morpholide = C1CN(*)CCO1; NHcHex = C1CCC(N*)CC1; CO = O=C([*:1])[*:2]; For = O=C*

Biological target: T1, LHRH receptors (Rattus norvegicus, UniProt P30969)
T1 construct: Pituitary membranes containing LHRH receptors are prepared in batches from quick-frozen rat pituitaries; tissue Hilltop Labs; host or cells: rat pituitary membranes
T1 sequence (P30969 1-327): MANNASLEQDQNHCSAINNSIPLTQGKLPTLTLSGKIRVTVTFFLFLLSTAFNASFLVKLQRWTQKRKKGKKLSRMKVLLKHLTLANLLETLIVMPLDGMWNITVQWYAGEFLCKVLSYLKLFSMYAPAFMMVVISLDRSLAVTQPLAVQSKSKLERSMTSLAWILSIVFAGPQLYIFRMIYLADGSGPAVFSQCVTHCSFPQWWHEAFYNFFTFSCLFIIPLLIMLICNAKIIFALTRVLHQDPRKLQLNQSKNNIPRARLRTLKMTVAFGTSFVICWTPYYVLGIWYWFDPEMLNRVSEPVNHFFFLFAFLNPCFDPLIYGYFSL
Assay: Receptor Binding (radioligand receptor binding assay)
Details: rat pituitary membranes, 2 hours at 4° C.

[1] = table 3, radioiodinated [D-Leu^6 -des Gly^10 ]-LHRH ethyl amide 50 pM, read-out: Receptor Binding pkI (converted)
[2] = table 4, radioligand 50 pM, read-out: Receptor Binding pkI (converted)

Row | SMILES | Ki [1] [nM] | further results
1 | CCNC(=O)[C@@H]1CCCN1C(=O)[C@H](CCCNC(=N)N)NC(=O)[C@H](CC(C)C)NC(=O)[C@@H](CCCCNC(=O)c1cccnc1)NC(=O)[C@H](Cc1ccc(O)cc1)NC(=O)[C@H](CO)NC(=O)[C@H](Cc1c[nH]c2ccccc12)NC(=O)[C@H](Cc1ccccc1)NC(=O)N1CCOCC1 [Compound 117, N-(N-alpha-Morpholinocarbonyl)-Phe-Trp-Ser-Tyr-D-Lys(Nic) -Leu-Arg-ProNHEt] ({Morpholide-CO}-FWSY[dK](Nicotinoyl)LRP-NHEt) | 1.86 | –
2 | CCNC(=O)[C@@H]1CCCN1C(=O)[C@H](CCCN=C(N)N)NC(=O)[C@H](CC(C)C)NC(=O)[C@@H](CCCCNC(=O)c1cccnc1)NC(=O)[C@H](Cc1ccc(O)cc1)NC(=O)[C@H](CO)NC(=O)[C@H](Cc1c[nH]c2ccccc12)NC(=O)CCc1ccc(F)cc1 [Compound 119, N-(3-(4-Fluorophenyl)propionyl)-Trp-Ser-Tyr-D-Lys(Nic) -Leu-Arg-Pro-NHEt] ({Propanoyl(3-(4-F-phenyl))}-WSY[dK](Nicotinoyl)LRP-NHEt) | 0.347 | –
3 | CCNC(=O)[C@@H]1CCCN1C(=O)[C@H](CCCN=C(N)N)NC(=O)[C@H](CC(C)C)NC(=O)[C@@H](Cc1c[nH]c2ccccc12)NC(=O)[C@H](Cc1ccc(O)cc1)NC(=O)[C@H](CO)N(C)C(=O)[C@@H](Cc1c[nH]c2ccccc12)NC(=O)CCc1ccc(F)cc1 [Compound 121] ({Propanoyl(3-(4-F-phenyl))}-[dW][NMeS]Y[dW]LRP-NHEt) | 0.0955 | –
4 | CCNC(=O)[C@@H]1CCCN1C(=O)[C@H](CCCN=C(N)N)NC(=O)[C@H](CC(C)C)NC(=O)[C@@H](CCCCNC(=O)c1cccnc1)NC(=O)[C@H](Cc1ccc(O)cc1)N(C)C(=O)[C@H](CO)NC(=O)[C@@H](Cc1c[nH]c2ccccc12)NC(=O)CCc1ccc(F)cc1 [Compound 122, N-(3-(4-Fluorophenyl)propionyl)-D-Trp-Ser-N-Me-Tyr-D -Lys(Nic)-Leu-Arg-ProNHEt] ({Propanoyl(3-(4-F-phenyl))}-[dW]S[NMeY][dK](Nicotinoyl)LRP-NHEt) | 0.00955 | –
5 | CC(C)C[C@H](NC(=O)[C@@H](Cc1cn(C=O)c2ccccc12)NC(=O)[C@H](Cc1ccc(O)cc1)NC(=O)[C@H](CO)NC(=O)[C@@H](Cc1cn(C=O)c2ccccc12)NC(=O)CCc1ccc(F)cc1)C(=O)N[C@@H](CCCNC(=N)N)C(=O)N1CCC[C@H]1C(=O)N[C@H](C)C(N)=O [Compound 123, N-3-(4-Fluorophenyl)propionyl-D-Trp-(N-indole-formyl)-Ser -Tyr-D-Trp(N-indole-formyl)-Leu-Arg-Pro-D-AlaNH2] ({Propanoyl(3-(4-F-phenyl))}-[dW](For)SY[dW](For)LRP[dA]-NH2) | 0.331 | –
6 | CCNC(=O)[C@@H]1CCCN1C(=O)[C@H](CCCNC(=N)N)NC(=O)[C@H](CC(C)C)NC(=O)[C@@H](Cc1c[nH]c2ccccc12)NC(=O)[C@H](Cc1ccc(O)cc1)NC(=O)[C@H](CO)NC(=O)[C@H](Cc1c[nH]c2ccccc12)NC(=O)[C@H](Cc1ccccc1)NC(=O)NCCc1ccccc1 [Compound 124, (2-9)[N-(N-alpha-Phenethylaminocarbonyl)-Phe^2 -D-Trp^6 -Pro^9 NHEt]LHRH] ({NHPhenethyl-CO}-FWSY[dW]LRP-NHEt) | 0.347 | –
7 | CCNC(=O)[C@@H]1CCCN1C(=O)[C@H](CCCNC(=N)N)NC(=O)[C@H](CC(C)C)NC(=O)[C@@H](Cc1c[nH]c2ccccc12)NC(=O)[C@H](Cc1ccc(O)cc1)NC(=O)[C@H](CO)NC(=O)[C@H](Cc1c[nH]c2ccccc12)NC(=O)[C@H](Cc1ccccc1)NC(=O)NC1CCCCC1 [Compound 125, (2-9)[N-(N-alpha-Cyclohexylaminocarbonyl)-Phe^2 -D-Trp^6 -Pro^9 NHEt]LHRH] ({NHcHex-CO}-FWSY[dW]LRP-NHEt) | 0.251 | –
8 | CCNC(=O)[C@@H]1CCCN1C(=O)[C@H](CCCNC(=N)N)NC(=O)[C@H](CC(C)C)NC(=O)[C@@H](Cc1c[nH]c2ccccc12)NC(=O)[C@H](Cc1ccc(O)cc1)NC(=O)[C@H](CO)NC(=O)[C@H](Cc1c[nH]c2ccccc12)NC(=O)[C@H](Cc1ccccc1)NC(=O)N(C1CCCCC1)C1CCCCC1 [Compound 126, (2-9)[N-(N-alpha-Dicyclohexylaminocarbonyl)-Phe^2 -D-Trp^6 -Pro^9 NHEt]LHRH] ({X5-CO}-FWSY[dW]LRP-NHEt) | – | Ki (Receptor Binding pkI, table 3, radioiodinated [D-Leu^6 -des Gly^10 ]-LHRH ethyl amide 50 pM): 37.2 nM
9 | CCNC(=O)N[C@@H](Cc1ccccc1)C(=O)N[C@@H](Cc1c[nH]c2ccccc12)C(=O)N[C@@H](CO)C(=O)N[C@@H](Cc1ccc(O)cc1)C(=O)N[C@H](Cc1c[nH]c2ccccc12)C(=O)N[C@@H](CC(C)C)C(=O)N[C@@H](CCCNC(=N)N)C(=O)N1CCC[C@H]1C(=O)NCC [Compound 127, (2-9)[N-(N-alpha-Ethylaminocarbonyl)-Phe^2 -D-Trp^6 -Pro^9 NHEt]LHRH] ({NHEt-CO}-FWSY[dW]LRP-NHEt) | 0.2 | –
10 | CCNC(=O)[C@@H]1CCCN1C(=O)[C@H](CCCNC(=N)N)NC(=O)[C@H](CC(C)C)NC(=O)[C@@H](Cc1c[nH]c2ccccc12)NC(=O)[C@H](Cc1ccc(O)cc1)NC(=O)[C@H](CO)NC(=O)[C@H](Cc1c[nH]c2ccccc12)NC(=O)[C@H](Cc1ccccc1)NC(=O)N1CCN(C)CC1 [Compound 128, (2-9)[N-(N-alpha-N-methylpiperazinocarbonyl)-Phe^2 -D-Trp^6 -Pro^9 NHEt]LHRH] ({Piperazinyl(4-Me)-CO}-FWSY[dW]LRP-NHEt) | 0.447 | –
11 | CCNC(=O)[C@@H]1CCCN1C(=O)[C@H](CCCNC(=N)N)NC(=O)[C@H](CC(C)C)NC(=O)[C@@H](Cc1c[nH]c2ccccc12)NC(=O)[C@H](Cc1ccc(O)cc1)NC(=O)[C@H](CO)NC(=O)[C@H](Cc1c[nH]c2ccccc12)NC(=O)[C@H](Cc1ccccc1)NS(=O)(=O)N1CCN(C)CC1 [Compound 129, N-(N-alpha-(N-Methylpiperazinosulfonyl))-Phe-Trp-Ser-Tyr -D-Trp-Leu-Arg-ProNHEt] (X8-WSY[dW]LRP-NHEt) | 1.86 | –
12 | CCNC(=O)[C@@H]1CCCN1C(=O)[C@H](CCCNC(=N)N)NC(=O)[C@H](CC(C)C)NC(=O)[C@@H](Cc1c[nH]c2ccccc12)NC(=O)[C@H](Cc1ccc(O)cc1)NC(=O)[C@H](CO)NC(=O)[C@H](Cc1c[nH]c2ccccc12)NC(=O)[C@H](Cc1ccccc1)NC(=O)CCc1ccc2ccccc2c1 [Compound 133, N-3-(2-Naphthyl)propionyl-Phe-Trp-Ser-Tyr-D-Trp-Leu-Arg -Pro-NHEt] (X3-FWSY[dW]LRP-NHEt) | 1.45 | –
13 | CCNC(=O)[C@@H]1CCCN1C(=O)[C@H](CCCNC(=N)N)NC(=O)[C@H](CC(C)C)NC(=O)[C@@H](Cc1c[nH]c2ccccc12)NC(=O)[C@H](Cc1ccc(O)cc1)NC(=O)[C@H](CO)NC(=O)[C@H](Cc1c[nH]c2ccccc12)NC(=O)[C@@H](Cc1ccccc1)NC(C)=O [Compound 134, N-Acetyl-D-Phe-Trp-Ser-Tyr-D-Trp-Leu-Arg-ProNHEt] (Ac-[dF]WSY[dW]LRP-NHEt) | 0.398 | –
14 | CCNC(=O)[C@@H]1CCCN1C(=O)[C@H](CCCNC(=N)N)NC(=O)[C@H](CC(C)C)NC(=O)[C@@H](Cc1c[nH]c2ccccc12)NC(=O)[C@H](Cc1ccc(O)cc1)NC(=O)[C@H](CO)NC(=O)[C@H](Cc1cccc2ccccc12)NC(=O)N1CCOCC1 [Compound 137, N-(N-alpha-Morpholinocarbonyl)-1-Nal-Ser-Tyr-D-Trp-Leu -Arg-ProNHEt] ({Morpholide-CO}-[1Nal]SY[dW]LRP-NHEt) | 0.263 | –
15 | CCNC(=O)[C@@H]1CCCN1C(=O)[C@H](CCCNC(=N)N)NC(=O)[C@H](CC(C)C)NC(=O)[C@@H](Cc1c[nH]c2ccccc12)NC(=O)[C@H](Cc1ccc(O)cc1)NC(=O)[C@H](CO)NC(=O)[C@H](Cc1ccc2ccccc2c1)NC(=O)N1CCOCC1 [Compound 138, N-(N-alpha-morpholinocarbonyl) -2-Nal-Ser-Tyr-D-Trp-Leu-Arg-ProNHEt] ({Morpholide-CO}-[2Nal]SY[dW]LRP-NHEt) | 1 | –
16 | CCNC(=O)[C@@H]1CCCN1C(=O)[C@H](CCCNC(=N)N)NC(=O)[C@H](CC(C)C)NC(=O)[C@@H](Cc1c[nH]c2ccccc12)NC(=O)[C@H](Cc1ccc(O)cc1)NC(=O)[C@H](CO)NC(=O)[C@@H](Cc1ccc(Cl)cc1)NC(=O)CCc1ccc(F)cc1 [Compound 140, (3-9) [N-(3-(4-Fluorophenyl)propionyl) -D-4-Cl-Phe^3 -D-Trp^6 -Pro^9 NHEt]LHRH] ({Propanoyl(3-(4-F-phenyl))}-[dPhe(4-Cl)]SY[dW]LRP-NHEt) | – | Ki [2]: 0.0891 nM
17 | CCNC(=O)[C@@H]1CCCN1C(=O)[C@H](CCCN=C(N)N)NC(=O)[C@H](CC(C)C)NC(=O)[C@@H](Cc1c[nH]c2ccccc12)NC(=O)[C@H](Cc1ccc(O)cc1)NC(=O)[C@H](CO)NC(=O)[C@@H](Cc1ccc(O)cc1)NC(=O)CCc1ccc(F)cc1 [Compound 141, (3-9)[N-(3-(4-Fluorophenyl)propionyl) -D-Tyr^3 -D-Trp^6 -Pro^9 NHEt]LHRH] ({Propanoyl(3-(4-F-phenyl))}-[dY]SY[dW]LRP-NHEt) | – | Ki [2]: 0.0257 nM
18 | CCNC(=O)[C@@H]1CCCN1C(=O)[C@H](CCCNC(=N)N)NC(=O)[C@H](CC(C)C)NC(=O)[C@@H](Cc1c[nH]c2ccccc12)NC(=O)[C@H](Cc1ccc(O)cc1)NC(=O)[C@H](CO)NC(=O)[C@H](Cc1c[nH]c2ccc(F)cc12)NC(=O)CCc1ccc(F)cc1 [Compound 142, (3-9)[N-(3-(4-Fluorophenyl)propionyl) -5-F-Trp^3 -D-Trp^6 -Pro^9 NHEt]LHRH] ({Propanoyl(3-(4-F-phenyl))}-[Trp(5-F)]SY[dW]LRP-NHEt) | – | Ki [2]: 0.0724 nM
